From publication PMC9867837 (Cancer letters, 2022)
Like-named read-outs stand apart in the source and are kept apart here.

What was measured:
hERG = target: T1, hERG (Homo sapiens, UniProt Q12809); test: hERG Qpatch assay; type: cell-based
T1 construct: Eurofins-CEREP (contract research organisation that ran the assay)

MDA-MB-231 cells = test: Soft-agar colony formation; type: cell-based, human; conditions: 0.3–2 μM H182
Experimental: These studies were performed as previously reported. Details are presented in Supplementary Information, “Methods”.
These studies were performed as previously reported . For the clonogenic survival assay, briefly, cells were seeded as single-cell (500 cells per well) in 6 -well plates, then untreated (DMSO control) or treated once the following day with H182 and allowed to grow until large colonies were visible, which were stained with crystal violet for 4 h and imaged with a FluorChem imaging system (Protein Simple, Santa Clara, CA).
For the soft-agar assay, briefly, each well contained a bottom layer of 1 ml of 1% agarose in complete DMEM and a top layer of 1 ml of 0.5% agarose in complete DMEM containing 500 cells. After the upper agar layer containing cells solidified, 1 ml culture medium containing H182 (0-2 µM) or DMSO (control) was overlaid, and the cultures were maintained at 37 °C in the incubator, with the medium replacement every 3-4 days with fresh medium that contains the inhibitor or not. Cells were allowed to culture for 3-4 weeks until large colonies were visible under microscope. The colonies were stained with crystal violet and […]
1.2.8. Confocal microscopy studies
4 cells in 1 ml) in logarithmic
These studies were performed as previously reported. […]

[1] = target: T2, Stat3:Stat3 DNA-binding activity (Mus musculus, UniProt P42227); test: EMSA of Stat3:Stat3 DNA-binding activity in nuclear extracts; type: biochemical; conditions: for Stat3:Stat3 % of Con, pre-formed Stat3:DNA complex: extract pre-incubated with hSIE probe 30 min
T2 construct: endogenous in cells; host or cells: NIH3T3/v-Src fibroblasts; EGF-stimulated NIH3T3/hEGFR fibroblasts (nuclear extracts)
T2 sequence (P42227 2-770 limits assumed): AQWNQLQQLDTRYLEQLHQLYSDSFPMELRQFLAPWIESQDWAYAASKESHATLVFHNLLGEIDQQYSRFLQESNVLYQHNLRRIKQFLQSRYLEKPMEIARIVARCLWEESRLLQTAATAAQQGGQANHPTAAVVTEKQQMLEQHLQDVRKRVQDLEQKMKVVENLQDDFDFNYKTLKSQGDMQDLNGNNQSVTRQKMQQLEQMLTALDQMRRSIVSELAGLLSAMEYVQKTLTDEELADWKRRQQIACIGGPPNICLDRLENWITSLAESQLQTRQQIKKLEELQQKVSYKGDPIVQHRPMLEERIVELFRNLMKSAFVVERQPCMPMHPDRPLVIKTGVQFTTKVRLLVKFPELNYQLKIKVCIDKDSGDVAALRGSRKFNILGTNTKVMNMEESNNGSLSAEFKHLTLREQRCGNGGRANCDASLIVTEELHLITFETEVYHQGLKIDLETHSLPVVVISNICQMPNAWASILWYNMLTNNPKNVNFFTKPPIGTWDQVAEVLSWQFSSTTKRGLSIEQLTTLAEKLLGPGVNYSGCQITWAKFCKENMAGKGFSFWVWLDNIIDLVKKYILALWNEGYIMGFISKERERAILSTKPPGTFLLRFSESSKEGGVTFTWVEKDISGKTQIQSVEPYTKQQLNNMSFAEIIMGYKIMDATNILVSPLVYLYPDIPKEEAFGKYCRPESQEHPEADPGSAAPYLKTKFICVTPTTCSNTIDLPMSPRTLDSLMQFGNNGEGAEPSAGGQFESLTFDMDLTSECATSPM
Experimental: Details are presented in Supplementary Information, “Methods”. […]
min, prior to incubation with the radiolabeled probe for 30 min at 30 °C and subjecting to EMSA analysis.
In another case, the nuclear extract was pre-incubated with the radiolabeled probe for 30 min at 30 °C prior to incubation with increasing concentration of H182 at room temperature for 30 min and subjecting to EMSA analysis. Bands corresponding to Stats DNA- binding activities were scanned and quantified using ImageJ and plotted as a percentage of control (vehicle) against the concentration of the inhibitor, from which the IC50 values were derived .

[2] = test system: MDA-MB-231 tumor xenografts; test: Subcutaneous MDA-MB-231 xenografts in athymic nude mice; type: in vivo
Experimental: Mice were housed in specific pathogen-free conditions in the animal facility. All animal experiments were conducted in accordance with the recommendations in the Guide for the Care and Use of Laboratory Animals on a protocol approved by the Institutional Animal Care and Use Committee (IACUC). Subcutaneous xenograft studies were performed as previously reported. Five-week-old female athymic nude mice were purchased from Envigo (Indianapolis, IN) or Charles River (Wilmington, MA) and maintained in the institutional animal facilities approved by the American Association for Accreditation of Laboratory Animal Care. […] Tumor sizes were monitored every 3–4 days, measured with calipers, and converted to tumor volume, V, according to the formula V = 0.52 × a^2 × b, where a, smallest superficial diameter, and b, largest superficial diameter. For each treatment group, the tumor volumes for each set of measurements were statistically analyzed relative to the control (DMSO-treated; 70% DMSO with sterile PBS) group.
Constitutively-active Stat3 promotes primary tumor development and the progression to therapy resistance. We proceeded to evaluate the in vivo antitumor efficacy against tumor growth in both human xenograft and mouse syngeneic models of TNBC. In four separate studies, we tested the efficacy of H182, H278 (HCl salt of H182), and H120. For these xenografts, the human breast cancer, MDA-MB-231 cells were injected subcutaneously into athymic nude mice. When tumors were palpable (80–120 mm^3), mice were grouped so that the mean tumor sizes were identical between groups and treated as follows: A) intraperitoneal (IP) injections of H182 at 10 mg/kg every other day for 33 days; B) oral gavage of H182 every day at 5 mg/kg for 20 days, and then increased to 20 mg/kg for additional 12 days; and C) oral gavage of H120 at 20 mg/kg, daily for 14 days, and then increased to 30 mg/kg, daily for additional 14 days.

[3] = 2 μM H182, incubation time 3 min
[4] = 2 μM H182, incubation time 10 min
[5] = 2 μM H182, incubation time 30 min
[6] = 2 μM H182, incubation time 60 min

T1 sequence (Q12809 whole entry): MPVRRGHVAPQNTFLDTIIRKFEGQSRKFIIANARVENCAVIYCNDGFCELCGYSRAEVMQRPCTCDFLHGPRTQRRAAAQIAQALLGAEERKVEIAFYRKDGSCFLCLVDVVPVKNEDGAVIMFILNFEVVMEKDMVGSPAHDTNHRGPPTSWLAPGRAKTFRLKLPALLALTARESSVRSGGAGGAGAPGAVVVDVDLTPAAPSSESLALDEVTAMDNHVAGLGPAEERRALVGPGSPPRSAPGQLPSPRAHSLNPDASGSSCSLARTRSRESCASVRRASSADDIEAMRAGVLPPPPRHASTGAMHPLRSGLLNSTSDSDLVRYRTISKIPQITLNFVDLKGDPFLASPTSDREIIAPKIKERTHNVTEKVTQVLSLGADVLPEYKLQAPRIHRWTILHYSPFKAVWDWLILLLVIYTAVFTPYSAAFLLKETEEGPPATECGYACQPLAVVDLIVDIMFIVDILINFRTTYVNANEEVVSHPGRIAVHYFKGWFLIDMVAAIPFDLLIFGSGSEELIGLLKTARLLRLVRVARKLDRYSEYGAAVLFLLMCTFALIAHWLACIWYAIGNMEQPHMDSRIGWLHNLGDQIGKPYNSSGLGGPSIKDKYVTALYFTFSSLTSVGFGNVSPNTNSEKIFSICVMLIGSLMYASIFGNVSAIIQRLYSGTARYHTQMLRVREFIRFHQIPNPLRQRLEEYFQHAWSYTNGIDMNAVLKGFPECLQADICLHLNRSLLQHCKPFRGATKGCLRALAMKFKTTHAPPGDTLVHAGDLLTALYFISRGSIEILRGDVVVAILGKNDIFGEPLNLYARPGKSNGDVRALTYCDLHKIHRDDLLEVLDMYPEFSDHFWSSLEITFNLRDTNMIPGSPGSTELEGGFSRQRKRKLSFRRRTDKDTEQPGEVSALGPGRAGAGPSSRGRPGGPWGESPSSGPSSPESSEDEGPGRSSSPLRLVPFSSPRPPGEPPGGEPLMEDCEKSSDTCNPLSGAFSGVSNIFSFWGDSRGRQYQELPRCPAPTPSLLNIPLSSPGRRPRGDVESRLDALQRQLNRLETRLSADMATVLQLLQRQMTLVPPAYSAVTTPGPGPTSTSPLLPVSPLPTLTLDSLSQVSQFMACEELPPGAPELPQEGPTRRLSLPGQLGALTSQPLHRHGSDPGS

O=C([C@H]1CCN1S(=O)(=O)c1c(F)c(F)c(F)c(F)c1F)N(Cc1ccc(C2CCCCC2)cn1)c1ccc2c(=O)[nH]ncc2c1 [Compound H182]
IC50 (hERG): > 10 µM
Effect on anchorage-independent growth in soft-agar (MDA-MB-231 cells): potently and dose-dependently inhibited
Stat3:Stat3 Intensity (% of Con) ([1]; 2 μM H182, incubation time 0 min): 100 % of Con
Stat3:Stat3 Intensity (% of Con) [1, 3]: 84 % of Con
inhibition at 2 µM [1, 3]: 16%
Stat3:Stat3 Intensity (% of Con) [1, 4]: 65 % of Con
inhibition at 2 µM [1, 4]: 35%
Stat3:Stat3 Intensity (% of Con) [1, 5]: 14 % of Con
inhibition at 2 µM [1, 5]: 86%
Stat3:Stat3 Intensity (% of Con) [1, 6]: 0.1 % of Con
inhibition at 2 µM [1, 6]: 99.9%
IC50 ([1]; EMSA, NIH3T3/v-Src nuclear extracts, 30-min incubation at room temperature before hSIE probe, read-out: Stat3:Stat3 IC50): 660 ± 100 nM
IC50 ([1]; EMSA, incubation time 10 min before hSIE probe, read-out: Stat3:Stat3 IC50): 1470 nM
IC50 ([1]; EMSA, incubation time 60 min before hSIE probe, read-out: Stat3:Stat3 IC50): 380 nM
IC50 ([1]; Fig. 1C, extracts of EGF-stimulated NIH3T3/hEGFR, hSIE probe, 30 min, read-out: IC50 Stat3:Stat3): 700 nM
Stat3:Stat3 % of Con, pre-formed Stat3:DNA complex ([1]; then 1 μM H182 30 min): 101 % of Con
Stat3:Stat3 % of Con, pre-formed Stat3:DNA complex ([1]; then 3 μM H182 30 min): 101 % of Con
Stat3:Stat3 % of Con, pre-formed Stat3:DNA complex ([1]; then 10 μM H182 30 min): 100 % of Con
Stat3:Stat3 % of Con, pre-formed Stat3:DNA complex ([1]; then 30 μM H182 30 min): 98 % of Con
Stat3:Stat3 % of Con, pre-formed Stat3:DNA complex ([1]; then 100 μM H182 30 min): 86 % of Con
IC50 ([1]; range over the named compounds and incubation times, read-out: IC50 Stat3 DNA-binding activity in vitro (summary range)): 380 to 980 nM
Inhibition of the pre-formed Stat3:DNA complex ([1]; up to 100 μM H182): unable to inhibit the pre-formed Stat3:DNA complex
Tumor growth, MDA-MB-231 xenografts ([2]; H182 IP 10 mg/kg every other day for 33 days): significant tumor growth inhibition
Tumor growth, MDA-MB-231 xenografts ([2]; H182 oral gavage daily 5 mg/kg for 20 days, then 20 mg/kg for 12 days): significant tumor growth inhibition
Body weights and obvious signs of toxicity ([2]; the three xenograft studies): No notable changes
